Results taken from EP2387997A1, “Use of dronedarone for the preparation of a medicament for the prevention of cardiovascular events in patients who developed permanent atrial fibrillation throughout the period the dronedarone is administered” (SANOFI, priority 2010, dated 2011).
Structures can show the parent of a compound that is named as a salt. Where two headings read alike, the source gives them in different places.

Tests used:
stroke = settings: ATHENA trial; cited from earlier work
[1] = test system: patients who developed permanent atrial fibrillation/flutter; assay: prospective, multinational, double-blind, randomized, multi-center, placebo-controlled, parallel group trial of dronedarone hydrochloride; type: in vivo
Procedure: • Patients in permanent atrial fibrillation • Patients in unstable hemodynamic condition such as acute pulmonary edema within 12 hours prior to start of study medication; cardiogenic shock; treatment with IV pressor agents; patients on respirator; congestive heart failure of stage NYHA IV within the last 4 weeks; uncorrected, hemodynamically significant primary obstructive valvular disease; hemodynamically significant obstructive cardomyopathy; a cardiac operation or revascularization procedure within 4 weeks preceding randomization • Planned major non-cardiac or cardiac surgery or procedures including surgery for valvular heart disease, coronary artery bypass graft (CABG), percutaneous coronary intervention (PCI), or on urgent cardiac transplantation list • Acute myocarditis or constrictive pericarditis • Bradycardia < 50 bpm and/or PR-interval ≥ 0.28 sec on the last 12-lead ECG. • Significant sinus node disease (documented pause of 3 seconds or more) or 2nd or 3rd degree atrioventricular block (AV-block) unless treated with a pacemaker.

[2] = test system: patients with persistent atrial fibrillation; settings: cited from earlier work; for effectiveness in increasing the time to a recurrence of atrial fibrillation relative to sotalol / increasing the time to a recurrence of atrial fibrillation: P<0.001; for number of strokes per 100 patient-years of follow-up: persistent atrial fibrillation, placebo 1.91, calculated from the article of Singh et al, page 1866; for increasing the time to a recurrence of atrial fibrillation: versus placebo

Structure (SMILES): CCCCc1oc2ccc(NS(C)(=O)=O)cc2c1C(=O)c1ccc(OCCCN(CCCC)CCCC)cc1 [dronedarone, 2-n-butyl-3-[4-(3-di-n-butylaminopropoxy)benzoyl]-5-methylsulfonamido-benzofuranne]
- incidence of stroke (stroke): ability to reduce the incidence of stroke

Structure (SMILES): CCCCc1oc2ccc(NS(C)(=O)=O)cc2c1C(=O)c1ccc(OCCCN(CCCC)CCCC)cc1 [dronedarone hydrochloride]
- events (stroke, Acute Coronary Syndrome (ACS) or cardiovascular death) ([1]; among the 178 patients who developed permanent atrial fibrillation/flutter on dronedarone hydrochloride, placebo group 24 events (295 patients)): 12 events
- Calculated relative risk of stroke, Acute Coronary Syndrome (ACS) or cardiovascular death ([1]; dronedarone versus placebo, Cox's proportional hazard model, patients who developed permanent atrial fibrillation/flutter): 0.805
- patients developed permanent atrial fibrillation/flutter ([1]; of 2301 patients treated with dronedarone hydrochloride (400 mg of base, one tablet morning and evening, 12 to 30 months), placebo group 295): 178 patients
- decrease of the relative risk of stroke, Acute Coronary Syndrome (ACS) or cardiovascular death ([1]; x = 1-RR, versus placebo, patients who developed permanent atrial fibrillation/flutter): 20%

Structure (SMILES): CCCCc1oc2ccccc2c1C(=O)c1cc(I)c(OCCN(CC)CC)c(I)c1 [amiodarone]
- effectiveness in increasing the time to a recurrence of atrial fibrillation relative to sotalol ([2]; analysis according to the treatment actually received): four times as effective
- effectiveness in increasing the time to a recurrence of atrial fibrillation relative to sotalol ([2]; intention-to-treat analysis): six times as effective as sotalol
- number of strokes per 100 patient-years of follow-up [2]: 2.06 per 100 patient-years
- increasing the time to a recurrence of atrial fibrillation [2]: significantly more effective than placebo

Structure (SMILES): CC(C)NCC(O)c1ccc(NS(C)(=O)=O)cc1 (centres unmarked) [sotalol]
- number of strokes per 100 patient-years of follow-up [2]: 2.71 per 100 patient-years
- increasing the time to a recurrence of atrial fibrillation [2]: significantly more effective than placebo
